Reference: patent publication US20020137929A1, “1 - (3-heterocyclylphenyl) isothiourea, -isourea, -guanidine and -amidine herbicidal agents” (Intellectual Property Department, BASF Aktiengesellschaft, priority 1998, published 2002)

Columns and labels:
SETVI (Foxtail, Green) = assay: Preemergence herbicidal evaluation; format: in vivo, Setaria viridis; details: rated 4-5 weeks after treatment
Summary of the method: (§1)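 Greenhouse preemergence test: seed-soil mix sown on ~1 inch soil; aqueous acetone spray at equivalent of ~0.0156–0.500 kg/ha; greenhouse-held and watered; scored 0–9 visually at 4–5 weeks.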

GALAP (Galium) = assay: Preemergence herbicidal evaluation; format: in vivo, Galium aparine; details: rated 4-5 weeks after treatment
Summary of the method: as §1

[1] = system: TRZAWR (Wheat, Winter, cv Riband); assay: Preemergence herbicidal evaluation; format: in vivo, Triticum aestivum; details: rated 4-5 weeks after treatment
Summary of the method: as §1

[2] = system: ECHORC (Watergrass (Calif.)); assay: Preemergence weed control under flooded paddy conditions; format: in vivo, Echinochloa oryzoides; details: rated 3-4 weeks after treatment
Summary of the method: (§2)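 Seeds or propagules sown in top 0.5 cm of silt loam soil, flooded 1.5 to 3 cm above surface throughout. Compound in 50/50 v/v aqueous/acetone pipetted into flood water at about 0.0313 to 0.500 kg/ha. Visual 0-9 rating versus control after three to four weeks in greenhouse.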

[3] = system: IPOHE (Morningglory, Ivyleaf); assay: Postemergence herbicidal evaluation; format: in vivo, Ipomoea hederacea; details: postemergence
Summary of the method: (§3)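 Scores (0–9) reflect plant stand, vigor, malformation, size, chlorosis and general appearance relative to control, read 4 to 5 weeks after treatment and averaged where tests were repeated. Application: about 0.0156–0.500 kg/ha sprayed at 40 psi onto two-week seedlings.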

ECHCG (Barnyardgrass) [4] = assay: Postemergence herbicidal evaluation; format: in vivo, Echinochloa crus-galli; details: postemergence
Summary of the method: as §3

CASOB (Sicklepod) [5] = assay: Postemergence herbicidal evaluation; format: in vivo, Cassia obtusifolia; details: postemergence
Summary of the method: as §3

ABUTH (Velvetleaf) = assay: Preemergence herbicidal evaluation; format: in vivo, Abutilon theophrasti; details: rated 4-5 weeks after treatment
Summary of the method: as §1

CYPSE (Flatsedge) = assay: Preemergence weed control under flooded paddy conditions; format: in vivo, Cyperus serotinus; details: rated 3-4 weeks after treatment
Summary of the method: (§4)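 Ratings on a 0-9 visual scale cover stand, vigor, malformation, size, chlorosis and overall appearance relative to a control, taken three to four weeks post-treatment. Application was into flood water over freshly sown silt loam at roughly 0.0313 to 0.500 kg/ha.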

ECHCG (Barnyardgrass) [6] = assay: Preemergence herbicidal evaluation; format: in vivo, Echinochloa crus-galli; details: rated 4-5 weeks after treatment
Summary of the method: as §1

ZEAMX (Corn, Field) [7] = assay: Preemergence herbicidal evaluation; format: in vivo, Zea mays; details: rated 4-5 weeks after treatment
Summary of the method: as §1

[8] = system: IPOHE (Morningglory, Ivyleaf); assay: Preemergence herbicidal evaluation; format: in vivo, Ipomoea hederacea; details: rated 4-5 weeks after treatment
Summary of the method: as §1

[9] = system: GLXMAW (Soybean, Williams); assay: Preemergence herbicidal evaluation; format: in vivo, Glycine max, (L.) Merr. cv Williams; details: rated 4-5 weeks after treatment
Summary of the method: as §1

CYPIR (Rice Flatsedge) = assay: Preemergence weed control under flooded paddy conditions; format: in vivo, Cyperus iria; details: rated 3-4 weeks after treatment
Summary of the method: as §2

CASOB (Sicklepod) [10] = assay: Preemergence herbicidal evaluation; format: in vivo, Cassia obtusifolia; details: rated 4-5 weeks after treatment
Summary of the method: as §1

MOOVA (Monochoria) = assay: Preemergence weed control under flooded paddy conditions; format: in vivo, Monochoria vaginalis; details: rated 3-4 weeks after treatment
Summary of the method: as §4

ZEAMX (Corn, Field) [11] = assay: Postemergence herbicidal evaluation; format: in vivo, Zea mays; details: postemergence
Summary of the method: as §3

## C=CCN1C(=O)C(CC(=O)NS(=O)(=O)C(C)C)SC1=Nc1cc(-n2c(=O)cc(C(F)(F)F)n(C)c2=O)c(F)cc1Cl (stereo not drawn) [Compound 118, 3-Allyl-2-{{2-chloro-5-[3,6-dihydro-3-methyl-2,6-dioxo-4-(trifluoromethyl)-1(2H)-pyrimidinyl]-4-fluorophenyl}imino}-N-(isopropylsulfonyl)-4-oxo-5-thiazolidineacetamide]
SETVI (Foxtail, Green); rate 0.0625 kg/ha
  Preemergence herbicidal rating SETVI: 0.0
SETVI (Foxtail, Green); rate 0.1250 kg/ha
  Preemergence herbicidal rating SETVI: 0.0
SETVI (Foxtail, Green); rate 0.2500 kg/ha
  Preemergence herbicidal rating SETVI: 2.0
GALAP (Galium); rate 0.0625 kg/ha
  Preemergence herbicidal rating GALAP: 1.0
GALAP (Galium); rate 0.1250 kg/ha
  Preemergence herbicidal rating GALAP: 6.0
GALAP (Galium); rate 0.2500 kg/ha
  Preemergence herbicidal rating GALAP: 7.0
[1]; rate 0.0625 kg/ha
  Preemergence herbicidal rating TRZAWR: 0.0
[1]; rate 0.1250 kg/ha
  Preemergence herbicidal rating TRZAWR: 0.0
[1]; rate 0.2500 kg/ha
  Preemergence herbicidal rating TRZAWR: 0.0
[2]; 0.0313 kg/ha
  herbicidal effect rating, ECHORC: 0.0
[2]; 0.0625 kg/ha
  herbicidal effect rating, ECHORC: 0.0
[2]; 0.1250 kg/ha
  herbicidal effect rating, ECHORC: 4.0
[2]; 0.2500 kg/ha
  herbicidal effect rating, ECHORC: 6.0
[3]; rate 0.0158 kg/ha
  herbicidal rating IPOHE: 1.0
[3]; rate 0.0315 kg/ha
  herbicidal rating IPOHE: 7.0
[3]; rate 0.0630 kg/ha
  herbicidal rating IPOHE: 9.0
ECHCG (Barnyardgrass) [4]; rate 0.0158 kg/ha
  herbicidal rating ECHCG: 0.0
ECHCG (Barnyardgrass) [4]; rate 0.0315 kg/ha
  herbicidal rating ECHCG: 1.0
ECHCG (Barnyardgrass) [4]; rate 0.0630 kg/ha
  herbicidal rating ECHCG: 1.0
CASOB (Sicklepod) [5]; rate 0.0158 kg/ha
  herbicidal rating CASOB: 0.0
CASOB (Sicklepod) [5]; rate 0.0315 kg/ha
  herbicidal rating CASOB: 0.0
CASOB (Sicklepod) [5]; rate 0.0630 kg/ha
  herbicidal rating CASOB: 0.0
ABUTH (Velvetleaf); rate 0.0625 kg/ha
  Preemergence herbicidal rating ABUTH: 9.0
ABUTH (Velvetleaf); rate 0.1250 kg/ha
  Preemergence herbicidal rating ABUTH: 9.0
ABUTH (Velvetleaf); rate 0.2500 kg/ha
  Preemergence herbicidal rating ABUTH: 7.0
CYPSE (Flatsedge); 0.0313 kg/ha
  herbicidal effect rating, CYPSE: 0.0
CYPSE (Flatsedge); 0.0625 kg/ha
  herbicidal effect rating, CYPSE: 0.0
CYPSE (Flatsedge); 0.1250 kg/ha
  herbicidal effect rating, CYPSE: 0.0
CYPSE (Flatsedge); 0.2500 kg/ha
  herbicidal effect rating, CYPSE: 0.0
ECHCG (Barnyardgrass) [6]; rate 0.0625 kg/ha
  Preemergence herbicidal rating ECHCG: 0.0
ECHCG (Barnyardgrass) [6]; rate 0.1250 kg/ha
  Preemergence herbicidal rating ECHCG: 0.0
ECHCG (Barnyardgrass) [6]; rate 0.2500 kg/ha
  Preemergence herbicidal rating ECHCG: 0.0
ZEAMX (Corn, Field) [7]; rate 0.0625 kg/ha
  Preemergence herbicidal rating ZEAMX: 0.0
ZEAMX (Corn, Field) [7]; rate 0.1250 kg/ha
  Preemergence herbicidal rating ZEAMX: 0.0
ZEAMX (Corn, Field) [7]; rate 0.2500 kg/ha
  Preemergence herbicidal rating ZEAMX: 0.0
[8]; rate 0.0625 kg/ha
  Preemergence herbicidal rating IPOHE: 0.0
[8]; rate 0.1250 kg/ha
  Preemergence herbicidal rating IPOHE: 1.0
[8]; rate 0.2500 kg/ha
  Preemergence herbicidal rating IPOHE: 6.0
[9]; rate 0.0625 kg/ha
  Preemergence herbicidal rating GLXMAW: 1.0
[9]; rate 0.1250 kg/ha
  Preemergence herbicidal rating GLXMAW: 0.0
[9]; rate 0.2500 kg/ha
  Preemergence herbicidal rating GLXMAW: 3.0
CYPIR (Rice Flatsedge); 0.0313 kg/ha
  herbicidal effect rating, CYPIR: 0.0
CYPIR (Rice Flatsedge); 0.0625 kg/ha
  herbicidal effect rating, CYPIR: 0.0
CYPIR (Rice Flatsedge); 0.1250 kg/ha
  herbicidal effect rating, CYPIR: 0.0
CYPIR (Rice Flatsedge); 0.2500 kg/ha
  herbicidal effect rating, CYPIR: 0.0
CASOB (Sicklepod) [10]; rate 0.0625 kg/ha
  Preemergence herbicidal rating CASOB: 0.0
CASOB (Sicklepod) [10]; rate 0.2500 kg/ha
  Preemergence herbicidal rating CASOB: 4.0
MOOVA (Monochoria); 0.0313 kg/ha
  herbicidal effect rating, MOOVA: 4.0
MOOVA (Monochoria); 0.0625 kg/ha
  herbicidal effect rating, MOOVA: 4.0
MOOVA (Monochoria); 0.1250 kg/ha
  herbicidal effect rating, MOOVA: 6.0
MOOVA (Monochoria); 0.2500 kg/ha
  herbicidal effect rating, MOOVA: 7.0
ZEAMX (Corn, Field) [11]; rate 0.0158 kg/ha
  herbicidal rating ZEAMX: 3.5
ZEAMX (Corn, Field) [11]; rate 0.0315 kg/ha
  herbicidal rating ZEAMX: 4.0
ZEAMX (Corn, Field) [11]; rate 0.0630 kg/ha
  herbicidal rating ZEAMX: 4.5
